Data published in patent publication US4595678A, “N-substituted pseudo-aminosugars and pharmaceutical compositions containing same” (Takeda Chemical Industries, Ltd., priority 1982, dated 1986).
Where two headings read alike, the source gives them in different places.

Experiments:
[1] = molecular target: T1, saccharase (porcine intestinal mucosa) (Sus scrofa, UniProt P56729); test: Glucosidase inhibitory activity, saccharase (sucrose as substrate); format: biochemical
T1 construct: prepared from porcine intestinal mucosa; from tissue; host or cells: porcine intestinal mucosa
T1 sequence (P56729 with tags, fused parts or gaps limits assumed): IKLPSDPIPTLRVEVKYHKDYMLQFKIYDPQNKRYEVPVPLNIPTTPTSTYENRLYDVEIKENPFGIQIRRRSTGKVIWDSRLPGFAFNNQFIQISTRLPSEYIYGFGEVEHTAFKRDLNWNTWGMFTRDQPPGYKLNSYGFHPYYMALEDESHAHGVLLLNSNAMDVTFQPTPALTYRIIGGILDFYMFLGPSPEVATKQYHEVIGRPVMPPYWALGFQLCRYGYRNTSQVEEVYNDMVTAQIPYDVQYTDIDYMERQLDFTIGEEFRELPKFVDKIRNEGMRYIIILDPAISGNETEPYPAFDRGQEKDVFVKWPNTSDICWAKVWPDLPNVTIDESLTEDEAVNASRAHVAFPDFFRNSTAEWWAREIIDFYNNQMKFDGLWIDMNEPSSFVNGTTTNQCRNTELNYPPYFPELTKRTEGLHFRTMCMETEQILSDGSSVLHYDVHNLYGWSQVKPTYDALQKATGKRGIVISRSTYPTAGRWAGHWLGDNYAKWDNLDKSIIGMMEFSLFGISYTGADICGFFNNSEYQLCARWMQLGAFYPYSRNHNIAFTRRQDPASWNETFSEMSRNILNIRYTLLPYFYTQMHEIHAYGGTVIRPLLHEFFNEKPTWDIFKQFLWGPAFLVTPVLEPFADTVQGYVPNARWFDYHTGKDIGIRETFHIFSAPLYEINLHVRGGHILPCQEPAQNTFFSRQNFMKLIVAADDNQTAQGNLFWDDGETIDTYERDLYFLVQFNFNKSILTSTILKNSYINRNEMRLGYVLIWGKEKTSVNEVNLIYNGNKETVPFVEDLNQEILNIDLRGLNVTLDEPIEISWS
T1 sequence (P56729 with tags, fused parts or gaps partner limits assumed): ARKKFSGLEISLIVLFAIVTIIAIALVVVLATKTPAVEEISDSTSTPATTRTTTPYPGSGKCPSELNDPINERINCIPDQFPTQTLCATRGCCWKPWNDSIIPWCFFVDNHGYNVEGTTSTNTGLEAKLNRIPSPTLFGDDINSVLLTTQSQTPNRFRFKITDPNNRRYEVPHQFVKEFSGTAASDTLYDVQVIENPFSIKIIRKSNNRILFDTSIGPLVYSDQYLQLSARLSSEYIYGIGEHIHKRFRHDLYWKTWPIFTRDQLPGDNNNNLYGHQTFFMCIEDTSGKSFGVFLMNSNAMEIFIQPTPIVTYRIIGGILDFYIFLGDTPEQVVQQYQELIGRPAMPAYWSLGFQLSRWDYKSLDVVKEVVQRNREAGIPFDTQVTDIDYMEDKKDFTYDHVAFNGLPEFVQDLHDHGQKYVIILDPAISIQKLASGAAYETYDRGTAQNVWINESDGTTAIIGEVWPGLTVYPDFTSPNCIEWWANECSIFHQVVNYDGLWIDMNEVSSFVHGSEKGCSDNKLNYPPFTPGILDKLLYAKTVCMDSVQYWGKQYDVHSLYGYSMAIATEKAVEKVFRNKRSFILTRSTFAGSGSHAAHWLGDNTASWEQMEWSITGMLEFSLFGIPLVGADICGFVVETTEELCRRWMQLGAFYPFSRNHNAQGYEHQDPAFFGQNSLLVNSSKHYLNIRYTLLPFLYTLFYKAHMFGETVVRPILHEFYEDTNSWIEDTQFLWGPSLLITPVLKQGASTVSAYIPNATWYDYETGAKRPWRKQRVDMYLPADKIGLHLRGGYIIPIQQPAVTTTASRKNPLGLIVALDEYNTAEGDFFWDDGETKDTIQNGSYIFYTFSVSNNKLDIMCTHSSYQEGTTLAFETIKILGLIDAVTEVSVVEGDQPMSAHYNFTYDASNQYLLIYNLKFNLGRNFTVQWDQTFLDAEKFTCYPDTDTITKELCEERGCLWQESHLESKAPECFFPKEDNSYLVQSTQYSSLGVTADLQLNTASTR
Method: (§1) The method of assaying the glucosidase inhibitory activity.
(§2) The inhibitory activities against maltase or saccharase prepared from porcine intestinal mucosa [prepared in accordance with the procedure as described by B. Borgstrom and A. Dahlqvist in Acta Chem. Scand., 12, 1997-2006, (1958)], when maltose or sucrose is used as a substrate, were determined by adding, to 0.25 ml of a solution of an enzyme prepared by diluting suitably with 0.02M phosphate buffer (pH 6.8), 0.5 ml of an inhibitory substance to be tested (compound [I] or a pharmaceutically acceptable salt thereof) in the same buffer and 0.25 ml of 0.05M maltose or 0.05M sucrose as the substrate in the same buffer, allowing the mixture to react at 37° C. for 10 minutes, then adding 3 ml of Glucose B-Test Reagent (a glucose oxidase reagent for measurement of glucose, produced by Wako Pure Chemical Co., Japan), further warming the mixture at 37° C. for 20 minutes and measuring the absorbance of the colored reaction solution at 505 nm.

[2] = molecular target: maltase (porcine intestinal mucosa); test: Glucosidase inhibitory activity, maltase (maltose as substrate); format: biochemical; details: read-out: IC50 (maltase), 50% inhibition concentration, pH 6.8, 37° C., 10 minutes
Method: as §1, §2

[3] = read-out: IC50 (saccharase), 50% inhibition concentration, pH 6.8, 37° C., 10 minutes

| SMILES | IC50 [1, 3] [nM] | IC50 [2] [nM] | IC50 ([1]; pH 6.8, 37° C., 10 minutes) [nM] |
| --- | --- | --- | --- |
| N[C@H]1C[C@H](CO)C(N[C@H]2C[C@H](CO)[C@@H](O)[C@H](O)[C@H]2O)[C@H](O)[C@H]1O (single isomer, unassigned) [Example 6, first eluted isomer] | 1600 | 2900 |  |
| N[C@H]1C[C@H](CO)C(N[C@H]2C[C@H](CO)[C@@H](O)[C@H](O)[C@H]2O)[C@H](O)[C@H]1O (single isomer, unassigned) [Example 6, later eluted isomer] | 78000 |  |  |
| N[C@H]1C[C@H](CO)C(N[C@H]2C[C@](O)(CO)[C@@H](O)[C@H](O)[C@H]2O)[C@H](O)[C@H]1O (single isomer, unassigned) [Example 8,4-amino derivative from the first eluted component of Example 7] | 250 | 3300 |  |
| N[C@H]1C[C@H](CO)C(N[C@H]2C[C@](O)(CO)[C@@H](O)[C@H](O)[C@H]2O)[C@H](O)[C@H]1O (single isomer, unassigned) [Example 8,4-amino derivative from the later eluted component of Example 7] | 230 | 2800 |  |
| NC1CC(N)C(N[C@H]2C[C@](O)(CO)[C@@H](O)[C@H](O)[C@H]2O)C(O)C1O (single isomer, unassigned) [Example 12, Isomer D, N-(2,4-Diamino-5,6-dihydroxycyclohexyl)valiolamine] | 88 | 1000 |  |
| CO[C@H]1O[C@H](CO)[C@H](N[C@H]2C[C@H](CO)[C@@H](O)[C@H](O)[C@H]2O)[C@H](O)[C@H]1O [Example 3, Galactopyranoside isomer, Methyl 4-[(1S,2S)-(2,4/3,5)-2,3,4-trihydroxy-5-hydroxymethylcyclohexyl]amino-4-deoxy-α-D-galactopyranoside] |  |  | 1000 |
| CO[C@H]1O[C@H](CO)[C@@H](N[C@H]2C[C@H](CO)[C@@H](O)[C@H](O)[C@H]2O)[C@H](O)[C@H]1O [Example 3, Glucopyranoside isomer, Methyl 4-[(1S,2S)-(2,4/3,5)-2,3,4-trihydroxy-5-hydroxymethylcyclohexyl]amino-4-deoxy-α-D-glucopyranoside] |  | 4400 | 580 |
| O=C(N[C@H]1C[C@H](CO)C(N[C@H]2C[C@H](CO)[C@@H](O)[C@H](O)[C@H]2O)[C@H](O)[C@H]1O)OCc1ccccc1 (stereo partly drawn) [Example 5, [(1S,2S)-(2,4/3,5)-2,3,4-Trihydroxy-5-hydroxymethylcyclohexyl][(2S)-(2,6/3,4)-4-benzyloxycarbonylamino-2,3-dihydroxy-6-hydroxy-methylcyclohexyl]amine] |  |  | 700 |
| CCOC(=O)NC1CC(NC(=O)OCC)C(N[C@H]2C[C@](O)(CO)[C@@H](O)[C@H](O)[C@H]2O)C(O)C1O (some centres unmarked) [Example 11, N-(2,4-Diethoxycarbonylamino-5,6-dihydroxycyclohexyl)valiolamine] | 4900 | 9000 |  |
| NC1CC(N)C(N[C@H]2C[C@H](CO)[C@@H](O)[C@H](O)[C@H]2O)C(O)C1O (some centres unmarked) [Example 14, N-(2,4-Diamino-5,6-dihydroxycyclohexyl)validamine] | 880 |  |  |
| OC[C@H]1C[C@H](N[C@@H]2C[C@H](CO)[C@@H](O)[C@H](O)[C@H]2O)[C@H](O)[C@@H](O)[C@@H]1O [Example 17, (1R,2S) isomer, N-[(1R,2S)-(2,4/3,5)-2,3,4-trihydroxy-5-hydroxymethylcyclohexyl]validamine] |  | 2200 | 270 |
| OC[C@H]1C[C@H](NC2[C@@H](O)C(O)O[C@H](CO)[C@H]2O)[C@H](O)[C@@H](O)[C@@H]1O (some centres unmarked) [N-(2,3,5-trihydroxy-6-hydroxymethyltetrahydropyran-4-yl)validamine] | 170 | 1900 |  |
| OCC1=C[C@H](NC2[C@@H](O)C(O)O[C@H](CO)[C@H]2O)[C@H](O)[C@@H](O)[C@@H]1O (some centres unmarked) [N-(2,3,5-trihydroxy-6-hydroxymethyltetrahydropyran-4-yl)valienamine] | 450 | 31000 |  |
| CC1(C)O[C@H]2O[C@H]([C@H](O)CO)C(N[C@H]3C[C@](O)(CO)[C@@H](O)[C@H](O)[C@H]3O)[C@H]2O1 (some centres unmarked) [N-[2,3-O-isopropylidene-2,3-dihydroxy-5-(1,2-dihydroxyethyl)tetrahydrofuran-4-yl]valiolamine] | 37000 |  |  |
| CO[C@H]1O[C@H](C)[C@@H](N[C@H]2C=C(CO)[C@@H](O)[C@H](O)[C@H]2O)[C@H](O)[C@H]1O [Reference Example 40,6-deoxyglucopyranoside isomer, Methyl 4-[(1S,6S)-(4,6/5)-4,5,6-trihydroxy-3-hydroxymethyl-2-cyclohexen-1-yl]amino-4,6-dideoxy-α-D-glucopyranoside] |  |  | 700 |
| CC1(O)CC(N)C(O)C(O)C1O (centres unmarked) [compound 26, 7-Deoxyvaliolamine] |  |  | 24000 |

Next, values leading:

| IC50 [1, 3] [nM] | IC50 [2] [nM] | IC50 ([1]; pH 6.8, 37° C., 10 minutes) [nM] | SMILES |
| --- | --- | --- | --- |
| 35 |  |  | C[C@H]1CC(O)[C@H](O)[C@@H](O)[C@@H]1N[C@H]1C[C@](O)(CO)[C@@H](O)[C@H](O)[C@H]1O (single isomer, unassigned) [Example 21, isomer (a)] |
| 36 |  |  | C[C@H]1CC(O)[C@H](O)[C@@H](O)[C@@H]1N[C@H]1C[C@](O)(CO)[C@@H](O)[C@H](O)[C@H]1O (single isomer, unassigned) [Example 21, isomer (b)] |
|  |  | 5600 | CO[C@H]1O[C@H](C)[C@H](N[C@H]2C[C@H](CO)[C@@H](O)[C@H](O)[C@H]2O)[C@H](O)[C@H]1O [Example 1,6-deoxygalactopyranoside isomer, Methyl 4-[(1S,2S)-(2,4/3,5)-2,3,4-trihydroxy-5-hydroxymethylcyclohexyl]amino-4,6-dideoxy-α-D-galactopyranoside] |
|  | 1800 | 740 | CO[C@H]1O[C@H](C)[C@@H](N[C@H]2C[C@H](CO)[C@@H](O)[C@H](O)[C@H]2O)[C@H](O)[C@H]1O [Example 1,6-deoxyglucopyranoside isomer, Methyl 4-[(1S,2S)-(2,4/3,5)-2,3,4-trihydroxy-5-hydroxymethylcyclohexyl]amino-4,6-dideoxy-α-D-glucopyranoside] |
|  | 320 | 620 | CO[C@H]1O[C@H](CO)[C@H](N[C@H]2C[C@](O)(CO)[C@@H](O)[C@H](O)[C@H]2O)[C@H](O)[C@H]1O [Example 4, Galactopyranoside isomer, Methyl 4-[(1S,2S)-(2,4,5(OH)/3,5-(CH2 OH))-2,3,4,5-tetrahydroxy-5-hydroxymethylcyclohexyl]amino-4-deoxy-α-D-galactopyranoside] |
|  | 72 | 80 | CO[C@H]1O[C@H](CO)[C@@H](N[C@H]2C[C@](O)(CO)[C@@H](O)[C@H](O)[C@H]2O)[C@H](O)[C@H]1O [Example 4, Glucopyranoside isomer, Methyl 4-[(1S,2S)-(2,4,5(OH)/3,5(CH2 OH))-2,3,4,5-tetrahydroxy-5-hydroxymethylcyclohexyl]amino-4-deoxy-α-D-glucopyranoside] |
|  | 44 | 48 | OC[C@H]1C[C@@H](N[C@H]2C[C@](O)(CO)[C@@H](O)[C@H](O)[C@H]2O)[C@H](O)[C@@H](O)[C@@H]1O [Example 18, (1R,2S) isomer, N-[(1R,2S)-(2,4/3,5)-2,3,4-trihydroxy-5-hydroxymethylcyclohexyl]valiolamine] |
|  |  | 5600 | OC[C@H]1C[C@H](N[C@H]2C[C@](O)(CO)[C@@H](O)[C@H](O)[C@H]2O)[C@H](O)[C@@H](O)[C@@H]1O [Example 18, (1S,2S) isomer, N-[(1S,2S)-(2,4/3,5)-2,3,4-trihydroxy-5-hydroxymethylcyclohexyl]valiolamine] |
|  |  | 53 | C[C@H]1C[C@H](N)[C@H](O)[C@@H](O)[C@H]1N[C@H]1C[C@](O)(CO)[C@@H](O)[C@H](O)[C@H]1O [Example 20, isomer (b), N-[(1S,2S)-(2,6/3,4)-4-amino-2,3-dihydroxy-6-methylcyclohexyl]valiolamine] |
|  | 130 | 25 | C[C@H]1O[C@H](O[C@H]2[C@H](O)[C@@H](O)[C@@H]3OC[C@H]2O3)[C@H](O)[C@@H](O)[C@@H]1N[C@H]1C[C@](O)(CO)[C@@H](O)[C@H](O)[C@H]1O [Example 25, isomer (b)] |
|  | 120 | 80 | C[C@H]1O[C@H](O[C@H]2[C@H](O)[C@@H](O)C(O)O[C@@H]2CO)[C@H](O)[C@@H](O)[C@@H]1N[C@H]1C[C@](O)(CO)[C@@H](O)[C@H](O)[C@H]1O (stereo partly drawn) [Example 28, 4-O-α-[4-[(1S)-(1,2,4,5(OH)/3,5(CH2 OH))-(2,3,4,5-Tetrahydroxy-5-(hydroxymethyl)cyclohexyl)amino]-4,6-dideoxy-D-glucopyranosyl]-D-glucopyranose] |
| 90 | 110 |  | OC[C@H]1OC(O)[C@H](O)C(N[C@H]2C[C@](O)(CO)[C@@H](O)[C@H](O)[C@H]2O)[C@@H]1O (some centres unmarked) [N-(2,3,5-trihydroxy-6-hydroxymethyltetrahydropyran-4-yl)valiolamine] |
